# Laboratory results: patent US20070184490A1, “Neuronal nicotinic receptor ligands and their use” (priority 2006, published 2007)
# Legend:
# [1] = Phase 1 multiple dose human study; type: in vivo; conditions: 5 to 40 mg twice daily
# adults with ADHD = test: pilot crossover study in adults with ADHD: CAARS, CGI-ADHD-S, HAM-A, HAM-D; type: in vivo, human
# Text: In addition to the primary outcome, the Conner's Adult ADHD Rating Scale (CAARS), secondary rating scales, neuropsychological, and safety assessments were completed. Results: A total of 11 adults with well-characterized ADHD completed this crossover study. […] On the clinical efficacy endpoints, CAARS Total Symptom Score and CAARS Hyperactive/Impulsive score, a shallow inverted V-shaped dose-response curve was observed. However, the dose-response curve for attention and memory effects as measured by computerized cognitive testing seemed dose-linear. No clinically meaningful findings in safety assessments or side effect profile were observed.
# Subjects between 18 and 60 years old who met the DSM-IV-TR criteria for ADHD as assessed by clinical interview and confirmed by the Washington University in St. Louis Kiddie Schedule for Affective Disorders and Schizophrenia (WASH-U-KSADS) diagnostic criteria for ADHD (Orvaschel 1985) (Geller et al 1998) were eligible for inclusion in the study. Furthermore, a score of ≧2 on at least six of nine items in at least one of the subscales of the Conner's Adult ADHD Rating Scale (CAARS) (Conners et al 1999) at screening and Day 1 and a score of ≧4 (i.e., at least moderate severity) on the Clinical Global Impressions-ADHD Severity (CGI-ADHD-S) test (Guy 1976) at screening were required. Exclusion criteria consisted of: smoker or user of nicotine product(s) in the three months prior to enrollment; clinically significant chronic medical conditions; current diagnosis or history of schizoaffective or bipolar disorder, obsessive-compulsive disorder, schizophrenia, or other psychotic disorder; current depression requiring treatment; serious homicidal or suicidal ideation; abnormal baseline laboratory values; drug or alcohol abuse/dependence within the last three months; current use of psychotropics or stimulants; and pregnant or lactating women. The following institutional review boards at Quorum IRB in Seattle, Wash., The Human Research Committee at the Lawrence House in Boston, Mass., the Institutional Board of Research Associates at the NYU School of Medicine in New York, N.Y., the New York Campus, Va. NY Harbor Healthcare Systems Subcommittee for human subjects, research and development subcommittee, and research safety subcommittee in New York, N.Y., the University of Vermont Committee on Human Research in Burlington, Vt., the Scientific Advisory Committee of Burlington, Vt., and the University of Chicago Hospitals IRB in Chicago, Ill. approved the study protocol, and all subjects provided written, informed consent.
# Following an initial two-week medication washout and screening period, subjects entered an eight-week double-blind treatment period. […] A study design schematic is provided below in Table 1.
# Raters for the CAARS were trained and certified prior to the start of the study. Investigator-administered CAARS, CGI-ADHD-S, Hamilton Anxiety Scale (HAM-A) (Hamilton 1959), and Hamilton Depression Scale (HAM-D) (Hamilton 1960) were administered to subjects at baseline and at the completion of each treatment period (Days 14, 28, 42, and 56). CMRS, HAM-A, and HAM-D ratings were based on the previous seven days. After being trained, subjects completed a computerized cognitive assessment battery (Simpson et al 1989), which was amended to include the Conner's Continuous Performance Test (Conners 1995) and the Stroop Color Word Test (Jensen and Rohwer 1966), at baseline and at the completion of each treatment period. Attentional tasks (simple and choice reaction time, digit vigilance), selective attention (Conner's CPT), working memory tasks (numeric and spatial working memory, rapid visual information processing), episodic secondary memory (immediate and delayed word recall, word and picture recognition), motor control tasks (tracking), and executive function (the Stroop effect) were among the items assessed. […]
# [2] = animal models; U-shaped dose-response; cited from earlier work
# [3] = pilot study: tolerability and safety; type: in vivo, human; conditions: for Adverse event Headache, subjects reporting / Adverse event Increased appetite, subjects reporting / Adverse event Nervousness, subjects reporting / Adverse event Pain, subjects reporting / Adverse event Somnolence, subjects reporting: N=11
# Experimental: Safety was evaluated by spontaneous report of adverse events; in addition, laboratory data (hematology, chemistry, urinalysis), vital signs, and electrocardiograms ([…]) were completed at baseline and at the end of each treatment period.
# [4] = pilot study: population PK plasma concentrations at steady state; type: in vivo, human
# Experimental: Blood samples for pharmacokinetic analysis were taken at 0, 1, 2, 4, and 8 hours on Day 1 and at approximately 2 hours post-dose on the last day of each dosing period. The blood samples were immediately stored at 4° C. or below. The blood samples were centrifuged within one hour of collection using a refrigerated centrifuge to separate the plasma. The plasma samples were transferred using plastic pipettes into plastic vials. The plasma samples were frozen at −20° C. within one hour from centrifugation and remained frozen until shipped to Abbott Laboratories for analysis.
# Due to limited pharmacokinetic sampling timepoints, trough and average concentrations were estimated using a non-linear mixed-effect pharmacokinetic modeling approach with NONMEM software Version V).
compound,measurement,setting,value
"Cc1ncccc1OC[C@@H]1CCCN1 [ABT-089, 2-methyl-3-(2-(S)-pyrrolidinylmethoxy)pyridine]",tolerability,[1],well tolerated
same,"Simple Reaction Time, a measure of attention",[1]; compared to placebo,significantly improved
same,Hyperactive/impulsive score improvement vs. placebo,adults with ADHD; 2 mg and 4 mg doses,~20%
same,Inattentive score improvement versus placebo,adults with ADHD; 2 mg and 20 mg doses,approximately 11%
same,"CAARS Hyperactive/Impulsive subscale, least square mean (±SE)",adults with ADHD; 2 mg bid,13.8 (0.9)
same,"CAARS Inattentive subscale, least square mean (±SE)",adults with ADHD; 2 mg bid,18.3 (1.2)
same,CGI-ADHD-S mean score,adults with ADHD; 2 mg dose,3.92 (0.20)
same,"effect size, CAARS total symptom score vs placebo",adults with ADHD; 2 mg twice daily,0.92
same,"CAARS Hyperactive/Impulsive subscale, least square mean (±SE)",adults with ADHD; 4 mg bid,14.5 (0.9)
same,"CAARS Inattentive subscale, least square mean (±SE)",adults with ADHD; 4 mg bid,18.7 (1.2)
same,CGI-ADHD-S mean score,adults with ADHD; 4 mg dose,4.09 (0.20)
same,"effect size, CAARS total symptom score vs placebo",adults with ADHD; 4 mg twice daily,0.76
same,"CAARS Hyperactive/Impulsive subscale, least square mean (±SE)",adults with ADHD; 20 mg bid,15.4 (0.9)
same,"CAARS Inattentive subscale, least square mean (±SE)",adults with ADHD; 20 mg bid,18.1 (1.2)
same,CGI-ADHD-S mean score,adults with ADHD; 20 mg dose,4.12 (0.20)
same,"effect size, CAARS total symptom score vs placebo",adults with ADHD; 20 mg twice daily,0.71
same,effect on HAM-A or HAM-D scores,adults with ADHD; in vivo,no effect
same,plasma levels associated with efficacy,[2],5 to 15 ng/mL
same,"Adverse event Headache, subjects reporting",[3]; 2 mg bid,3
same,"Adverse event Increased appetite, subjects reporting",[3]; 2 mg bid,0
same,"Adverse event Nervousness, subjects reporting",[3]; 2 mg bid,1
same,"Adverse event Pain, subjects reporting",[3]; 2 mg bid,0
same,"Adverse event Somnolence, subjects reporting",[3]; 2 mg bid,0
same,serious adverse events,[3]; 2 mg to 20 mg twice daily,no serious adverse events
same,tolerability,"[3]; 2 mg to 20 mg twice daily, 11 adult ADHD subjects",well tolerated
same,"Adverse event Headache, subjects reporting",[3]; 4 mg bid,0
same,"Adverse event Increased appetite, subjects reporting",[3]; 4 mg bid,0
same,"Adverse event Nervousness, subjects reporting",[3]; 4 mg bid,0
same,"Adverse event Pain, subjects reporting",[3]; 4 mg bid,0
same,"Adverse event Somnolence, subjects reporting",[3]; 4 mg bid,0
same,"nausea, subjects",[3]; 4 mg dose,one subject
same,"Adverse event Headache, subjects reporting",[3]; 20 mg bid,2
same,"Adverse event Nervousness, subjects reporting",[3]; 20 mg bid,1
same,"Adverse event Pain, subjects reporting",[3]; 20 mg bid,2
same,"Adverse event Somnolence, subjects reporting",[3]; 20 mg bid,2
same,"laboratory findings, vital signs or ECG",[3]; during the study,no clinically meaningful findings or dose-related trends
same,"Cavg Mean (±SD), model-predicted, steady state",[4]; 2 mg bid,4.47 (1.05) ng/mL
same,"Ctrough Mean (±SD), model-predicted, steady state",[4]; 2 mg bid,1.85 (0.79) ng/mL
same,"Cavg Mean (±SD), model-predicted, steady state",[4]; 4 mg bid,8.94 (2.09) ng/mL
same,"Ctrough Mean (±SD), model-predicted, steady state",[4]; 4 mg bid,3.69 (1.59) ng/mL
same,"Cavg Mean (±SD), model-predicted, steady state",[4]; 20 mg bid,44.7 (10.46) ng/mL
same,"Ctrough Mean (±SD), model-predicted, steady state",[4]; 20 mg bid,18.46 (7.95) ng/mL
